{"source": "paper PMC10634346", "about": "(Cancer Research Communications, 2023)", "key": {"[1]": {"tested_on": "MCL1 mRNA in SU-DHL-10 cells", "experiment": "In vitro washout, MCL1 mRNA qPCR, SU-DHL-10", "assay_type": "cell-based, human", "settings": "4 h treatment then washout, for 16 to 48 hours after treatment", "method": "Evaluation of the pharmacodynamic extent and duration of CDK9 inhibition were performed in vitro using the human DLBCL cell lines SU-DHL-4 and SU-DHL-10, harboring MYC amplification and MYC overexpression with P57T mutation, respectively. Cells were seeded 18 hours prior to treatment for 4 hours with one of three CDK9 inhibitors, enitociclib (0.25 and1 µmol/L), atuveciclib (1 µmol/L) or KB-0742 (1 µmol/L), cells were washed, and incubation continued until 48 hours posttreatment. Samples were collected before treatment (−4), immediately after treatment (0), and at 1, 2, 4, 8, 12, 16, 24, and 48 hours after washout for RNA sequencing (RNA-seq), qPCR, and Western blotting analyses. Total RNA was extracted from blood of patients and cell lines using RNeasy Plus Mini Kit (QIAGEN, #74136) and cDNA prepared with the Maxima First Strand cDNA Synthesis Kit for RT-PCR (Thermo Fisher Scientific, K1642) according to manufacturer's instructions. The integrity of purified total RNA was evaluated using an Agilent 2100 Bioanalyzer system and RNA 6000 Nano Kit (Agilent, #5067-1511). Differential gene expression analysis was performed (Fios Genomics) from RNA-seq data (Discovery Life Sciences). MYC and MCL1 mRNA levels were measured by qPCR in vitro and in vivo, using a Taqman qPCR system (Thermo Fisher Scientific), TaqMan Fast Universal PCR Master Mix (2X) no AmpErase (#4352042) and TaqMan probes for MYC (Hs00153408_m1) and MCL1 (Hs03043899_m1). RNA-seq data were analyzed using DESeq2 ([35])."}, "[2]": {"tested_on": "p-Ser2 RNA polymerase II in SU-DHL-10 tumors", "experiment": "Pharmacodynamics in SU-DHL-10 xenograft tumors, p-Ser2", "assay_type": "in vivo, C.B-17 SCID mice", "method": "The levels of p-Ser2, p-Ser5 and total RNA polymerase II, Myc, Mcl-1, cleaved PARP (cPARP), and cleaved Caspase 3 were assessed by Western blotting and quantified near-infrared detection and background corrected quantification of fluorescence intensity on an Odyssey Imaging System with IRDye secondary antibodies (LI-COR Biosciences). For quantification, the protein levels were normalized to GAPDH or HSP90, expressed as a ratio to DMSO or vehicle control at matched timepoints. The normalized relative protein levels of p-Ser2 were used for a treatment effect comparison by performing an ANOVA using PROC MIXED in SAS. The ANOVA model included treatment, timepoints and their interactions as fixed effects. The least square means (LSM), differences between the LSMs and associated P values were generated. The following primary antibodies were used: Rpb1 NTD (D8L4Y) rabbit antibody [Cell Signaling Technology (CST), #14958], anti-RNA polymerase II subunit B1 (phospho CTD Ser-2, clone 3E10) rat antibody (Merck, 04-1571-I), recombinant anti-c-MYC rabbit antibody (Y69; Abcam, #ab32072), MCL1 (D5V5L) rabbit antibody (CST, #39224), cleaved-PARP (Asp214) (E2T4K) mouse antibody (CST, #32563), HSP90 (C45G5) rabbit antibody (CST, #4877), and GAPDH mouse antibody (Zytomed Systems, #ZYT-RGM2-6C5). […]"}, "[3]": {"tested_on": "MCL1 mRNA in SU-DHL-10 tumors", "experiment": "Pharmacodynamics in SU-DHL-10 xenograft tumors, MCL1 mRNA qPCR", "assay_type": "in vivo, C.B-17 SCID mice", "settings": "single dose; depletion sustained for 8 hours postdose at the two higher dose levels", "method": "(§1) Total RNA was extracted from blood of patients and cell lines using RNeasy Plus Mini Kit (QIAGEN, #74136) and cDNA prepared with the Maxima First Strand cDNA Synthesis Kit for RT-PCR (Thermo Fisher Scientific, K1642) according to manufacturer's instructions. The integrity of purified total RNA was evaluated using an Agilent 2100 Bioanalyzer system and RNA 6000 Nano Kit (Agilent, #5067-1511). Differential gene expression analysis was performed (Fios Genomics) from RNA-seq data (Discovery Life Sciences). MYC and MCL1 mRNA levels were measured by qPCR in vitro and in vivo, using a Taqman qPCR system (Thermo Fisher Scientific), TaqMan Fast Universal PCR Master Mix (2X) no AmpErase (#4352042) and TaqMan probes for MYC (Hs00153408_m1) and MCL1 (Hs03043899_m1). RNA-seq data were analyzed using DESeq2 ([35]).\nA total of 10 × 10^6 SU-DHL-10 cells were inoculated subcutaneously into 6–8 weeks old female C.B-17 SCID mice (Iffa Credo, Brussels). The mice were randomized to treatment groups at a tumor volume of 63–104 mm^3 and treated (intravenously, once weekly) with 10 mg/kg enitociclib (60% PEG400, 10% ethanol, water), 15 mg/kg enitociclib (30% PEG400, 10% ethanol, water), or corresponding vehicle treatments. Mice were around 10–12 weeks of age at the start of study. All animal experiments were performed under the national animal welfare laws of Germany and approved by the local authorities."}, "[4]": {"tested_on": "PHF23, TP53RK, ZFP36 and JUNB mRNA in blood", "experiment": "RNA-seq DEGs in blood of patients (PHF23, TP53RK, ZFP36, JUNB)", "assay_type": "in vivo, human", "method": "as §1\nFifteen patients with refractory or relapsed DH-DLBCL or other MYC+ NHL were treated with enitociclib (30 mg, 21-day cycle, once weekly x3) as a 30-minute intravenous infusion on study days 1, 8, and 15 (NCT02635672). Longitudinal gene expression levels were analyzed by RNA-seq, and enitociclib plasma concentrations were measured using LC/MS-MS. The clinical study protocol was approved by the Institutional Review Board of participating institutions and complied with the Declaration of Helsinki, current Good Clinical Practice guidelines, and local laws and regulations. Written informed consent was provided by all participants prior to the initiation of any study-specific procedure.\nRNA-seq data generated from the analysis of two cell lines treated with the three CDK9 inhibitors was analyzed to investigate the differences in gene expression levels between various posttreatment timepoints and the pretreatment samples. Quality control assessment and exploratory data analysis by principal component analysis (PCA) were done on raw counts and on normalized count data. Normalization of RNA-seq count data was done using trimmed mean of M-values normalization and transformed with voom, resulting in log2 counts per million with associated precision weights. […] Significance values (Padj) were adjusted for multiple testing, by controlling the FDR using the Benjamini–Hochberg procedure. […] RNA-seq data generated from blood samples taken from patients before and after their first dose (C1D1) or after multiple doses, before and after their third dose (C1D15) were analyzed and normalized using the same pipeline as cell lines for comparisons."}, "[5]": {"tested_on": "DH-DLBCL and other MYC+ NHL", "settings": "30 mg i.v. once weekly, phase I; cited from earlier work"}, "[6]": {"settings": "DH-DLBCL and other MYC+ NHL, after C1D1 and C1D15"}}}
{"smiles": "COc1cc(F)ccc1-c1cc(Nc2cc(CS(C)(=N)=O)ccn2)ncc1F", "note": "(stereo not shown) [enitociclib]", "values": [{"measurement": "inhibition of MCL1 mRNA levels", "setting": "[1]", "result": "approximately 75%"}, {"measurement": "decrease of p-Ser2 levels in tumors", "setting": "[2]; single dose 5 mg/kg, for 8 hours", "result": "greater than 50%"}, {"measurement": "p-Ser2 in tumors (in words)", "setting": "[2]; single dose 10 and 15 mg/kg, 8 hours postdose timeframe", "result": "depletion of p-Ser2"}, {"measurement": "MCL1 mRNA levels in tumors (in words)", "setting": "[3]", "result": "reduced by 4 hours postdose"}, {"measurement": "PHF23 mRNA fold change from predose", "setting": "[4]; [6]", "result": "approximately –1 fold change"}, {"measurement": "TP53RK mRNA fold change from predose", "setting": "[4]; [6]", "result": "–2 fold change"}, {"measurement": "Downregulation of ZFP36 and JUNB mRNA levels", "setting": "[4]; other MYC+ NHL (n = 3), after C1D1", "result": "approximately −2 fold change"}, {"measurement": "Downregulation of ZFP36 and JUNB mRNA levels", "setting": "[4]; other MYC+ NHL (n = 3), after C1D15 (decreased toward)", "result": "~−1"}, {"measurement": "Downregulation of ZFP36 and JUNB mRNA levels", "setting": "[4]; patients with DH-DLBCL, after C1D1 and C1D15", "result": "> −2"}, {"measurement": "complete metabolic remission (CR), patients with DH-DLBCL", "setting": "[5]", "result": "2 of 7"}]}
